Assay results as given in patent US20060263368A1, “Targeted chimeric molecules for cancer therapy” (Research Development Foundation, priority 2005, published 2006).

B1: scFv23: single chain antibody recognizing the cell surface domain of HER-2/neu (protein)
scFv: DVQLTQSPAILSASPGEKVTMTCRATPSVSYMHWYQQKPGSSPKPWIYTTSNLASGVPARFSGGGSGTSYSLTVSRVEAEDAATYYCQQWSRSPPTFGGGSKLEIKGSTSGSGKSSEGKGVQLQESGPEVVKPGGSMKISCKTSGYSFTGHTMNWVKQSHGKNLEWIGLINPYNGDTNYNQKFKGKATFTVDKSSSTAYMELLSLTSEDSAVYYCARRVTDWYFDVWGAGTTVTVSS

Columns and labels:
[1] = system: AsPc-1, Capan-1, Capan-2, and L3.6pl; assay: cells; conditions: Homo sapiens, Pancreatic cancer cell
Description: (§4) To examine the potential mediation of the synergistic effect of combination treatments by activation of caspase-3 cells were pretreated with or without 100 μM caspase-3 inhibitor (Ac-DEVD-CHO) for 3 hr and then treated with their individual IC25 concentrations. After incubation for an additional 72 hr, remaining adherent cells were stained by adding 50 μl of crystal violet solution (0.5% w/v in 20% MeOH/H2O). Dye-stained cells were solubilized by addition of 100 μl of Sorenson's buffer [100 mM sodium citrate (pH 4.2) in 50% ethanol], and absorbance was measured at 630 nm using an ELISA plate reader (Bio-Tek Instruments, Inc., Winooski, Vt.).

Capan-1 = assay: In vitro cytotoxicity and combination study, crystal violet; type: cell-based, human; conditions: 72 hr of exposure
Description: (§1) If CI near to 1 indicates additive effect (ADD), CI>1 indicates antagonism (ANT), CI<1 indicates synergism (SYN).

Capan-2 = assay: as above; type: cell-based, human; conditions: 72 hr of exposure
Description: as §1

AsPc-1 = assay: as above; type: cell-based, human; conditions: 72 hr of exposure
Description: as §1

L3.6pl = assay: as above; type: cell-based, human; conditions: 72 hr of exposure
Description: as §1

L3.6pl cells = assay: Western blot of signal transduction effects; type: cell-based, human; parameters: key to Caspase-8 cleavage / Caspase-3 cleavage / PARP cleavage / Akt / p-Akt / Bcl-2: NE represents no effect; conditions: IC25 doses
Description: Cell lysates ([…]) were fractionated by 8-15% SDS-PAGE and transferred on Immobilon-P nitrocellulose membranes (Schleicher & Schuell Inc., Keene, N.H.). Membranes were blocked for 2 hours in Tris-buffered saline (TBS) containing 3% bovine serum albumin. Monoclonal anti-HER-2/neu Ab (Oncogene Research Products, San Diego, Calif.), rabbit polyclonal anti-HER-1 Ab, rabbit polyclonal anti-TNFR-1 Ab, rabbit polyclonal anti-TNFR-2 Ab, rabbit polyclonal anti-phospho Akt Ab, rabbit polyclonal anti-Akt, and goat anti-β-actin Ab were used for immunoblotting. Goat anti-mouse/goat anti-rabbit or swain anti-goat antibodies conjugated with horseradish peroxidase (Bio-Rad Laboratories, Hercules, Calif.) were used to visualize immunoreactive proteins at a 1:4000 dilution using ECL detection reagent (Amersham Pharmacia Biotech Inc., Piscataway, N.J.).
HER-2/neu over-expression results in activation of different downstream pathways such as the Akt kinase pathway, which leads to cell proliferation and cell survival. […] The activation of Akt kinase was then assessed by Western blot analysis using antibodies to Akt and to phospho-Akt. […]
To determine whether caspase-8 and caspase-3 were activated in L3.6pl cells during 5-FU+scFv23/TNF-induced cell death, the cleavage of caspase-8, caspase-3, and its substrate poly (ADP)-ribose polymerase (PARP) was investigated.

A375-M Cells = assay: Combination studies of GrB/scFvMEL with chemotherapeutic agents; conditions: for antitumor activity on co-administration with GrB/scFvMEL: 72 hours
Description: Cells in exponential growth phase were plated into 96-well plates. After 24 hr, the cells were treated with drug-containing medium. At the end of the indicated incubation period, growth inhibition was assessed by crystal violet staining. In order to determine the effects of sequencing, cells were treated with different two sequences.
I.C.25 dose of either GrB/scFvMEL or chemotherapeutic agents have been used in combination studies.

[2] = system: AsPc-1, Capan-1, Capan-2, and L3.6pl; conditions: pancreatic cancer cell lines
Description: as §4

parental A375 cells = assay: Cytotoxicity on parental and doxorubicin-resistant cells; type: cell-based; conditions: Homo sapiens, A-375; 72 hours
Description: (§2) To examine the cytotoxicity of GrB/scFvMEL or MEL/sFv/rGel, melanoma cells were plated on 96-well plates at a density of 4×10^3 cells per well and allowed to adhere for 24 hr at 37° C. in 5% CO2. After 24 hr, the medium was replaced with medium that contained various concentrations of fusion proteins. […] The percent of control refers to the percentage of cells in the drug-treated wells compared to that of control (untreated) wells.
(§3) Expression of the gp240 antigen was assessed by ELISA using ZME-018 antibody specifically recognizing gp240 antigen.

[3] = system: A375 doxorubicin-resistant (A375DR); assay: as above; type: cell-based; conditions: Homo sapiens, A-375; 72 hours
Description: as §2, §3

[4] = target: gp240 antigen (high-molecular-weight glycoprotein gp240 on human melanoma cells) (human) (UniProt Q6UVK1); assay: cell-based or functional assay
Chain of gp240 antigen (high-molecular-weight glycoprotein gp240 on human melanoma cells) (human) (Q6UVK1 30-2322): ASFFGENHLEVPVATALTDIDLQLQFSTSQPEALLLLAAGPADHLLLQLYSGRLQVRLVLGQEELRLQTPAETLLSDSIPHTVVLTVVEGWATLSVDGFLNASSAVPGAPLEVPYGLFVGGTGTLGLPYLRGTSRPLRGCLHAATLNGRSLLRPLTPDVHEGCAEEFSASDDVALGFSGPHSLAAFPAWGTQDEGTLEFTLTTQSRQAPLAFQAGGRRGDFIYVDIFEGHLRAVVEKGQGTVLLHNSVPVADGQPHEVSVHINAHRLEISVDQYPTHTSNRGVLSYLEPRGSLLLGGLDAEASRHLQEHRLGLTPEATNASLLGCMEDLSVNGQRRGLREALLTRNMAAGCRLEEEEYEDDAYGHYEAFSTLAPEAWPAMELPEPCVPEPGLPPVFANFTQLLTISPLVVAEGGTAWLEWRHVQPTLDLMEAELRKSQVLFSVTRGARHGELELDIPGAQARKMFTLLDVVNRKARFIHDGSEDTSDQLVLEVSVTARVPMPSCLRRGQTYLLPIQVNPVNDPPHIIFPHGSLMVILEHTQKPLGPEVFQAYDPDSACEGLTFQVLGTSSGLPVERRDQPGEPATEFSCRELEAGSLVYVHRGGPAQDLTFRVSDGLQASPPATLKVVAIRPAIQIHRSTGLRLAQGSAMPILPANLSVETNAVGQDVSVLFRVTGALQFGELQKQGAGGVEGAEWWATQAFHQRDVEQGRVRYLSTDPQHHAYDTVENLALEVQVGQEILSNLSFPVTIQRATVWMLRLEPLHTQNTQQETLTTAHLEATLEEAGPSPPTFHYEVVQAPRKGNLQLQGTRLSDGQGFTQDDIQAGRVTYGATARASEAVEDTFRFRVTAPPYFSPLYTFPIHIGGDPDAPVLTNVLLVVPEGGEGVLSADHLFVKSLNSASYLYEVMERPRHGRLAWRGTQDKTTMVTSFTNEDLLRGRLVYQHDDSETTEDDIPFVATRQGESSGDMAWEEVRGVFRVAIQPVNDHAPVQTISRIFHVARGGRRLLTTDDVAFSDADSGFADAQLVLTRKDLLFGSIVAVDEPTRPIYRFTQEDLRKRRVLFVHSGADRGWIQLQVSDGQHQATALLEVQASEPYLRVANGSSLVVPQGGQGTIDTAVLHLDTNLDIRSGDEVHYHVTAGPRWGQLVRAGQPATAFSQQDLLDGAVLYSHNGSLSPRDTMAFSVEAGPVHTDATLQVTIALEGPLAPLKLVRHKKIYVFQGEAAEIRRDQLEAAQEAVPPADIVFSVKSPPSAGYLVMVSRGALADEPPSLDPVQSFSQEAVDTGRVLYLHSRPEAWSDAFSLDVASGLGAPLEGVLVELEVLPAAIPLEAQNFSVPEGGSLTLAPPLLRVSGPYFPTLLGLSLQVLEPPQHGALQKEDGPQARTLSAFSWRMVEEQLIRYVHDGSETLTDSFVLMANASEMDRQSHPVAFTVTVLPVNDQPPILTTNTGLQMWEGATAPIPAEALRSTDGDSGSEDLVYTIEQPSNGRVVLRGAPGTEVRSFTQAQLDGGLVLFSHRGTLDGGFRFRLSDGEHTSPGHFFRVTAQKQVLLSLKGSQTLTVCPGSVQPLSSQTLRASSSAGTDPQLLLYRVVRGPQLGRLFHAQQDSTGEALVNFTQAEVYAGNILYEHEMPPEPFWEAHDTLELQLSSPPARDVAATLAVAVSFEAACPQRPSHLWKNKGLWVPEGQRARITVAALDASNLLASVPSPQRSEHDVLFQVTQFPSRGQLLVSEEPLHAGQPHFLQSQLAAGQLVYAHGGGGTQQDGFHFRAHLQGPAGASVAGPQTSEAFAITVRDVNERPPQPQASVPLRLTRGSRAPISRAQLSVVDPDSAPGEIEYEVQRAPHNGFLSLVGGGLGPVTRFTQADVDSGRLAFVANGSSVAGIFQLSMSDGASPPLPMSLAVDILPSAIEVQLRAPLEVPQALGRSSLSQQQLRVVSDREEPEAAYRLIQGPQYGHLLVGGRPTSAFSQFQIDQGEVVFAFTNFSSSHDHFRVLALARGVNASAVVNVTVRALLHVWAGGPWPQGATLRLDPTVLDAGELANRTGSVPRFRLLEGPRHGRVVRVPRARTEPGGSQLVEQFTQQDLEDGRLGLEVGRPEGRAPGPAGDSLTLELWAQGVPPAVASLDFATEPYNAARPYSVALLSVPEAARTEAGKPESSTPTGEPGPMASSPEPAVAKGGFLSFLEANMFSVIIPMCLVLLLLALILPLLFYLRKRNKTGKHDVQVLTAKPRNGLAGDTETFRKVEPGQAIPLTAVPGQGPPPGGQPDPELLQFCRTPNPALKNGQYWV

[5] = target: gp240 antigen (high-molecular-weight glycoprotein gp240 on human melanoma cells) (human) (UniProt Q6UVK1); assay: flow cytometry on A375-M cells stained with ZME-018 IgG2a and APC goat anti-mouse, against an isotype control
[6] = target: gp240 antigen (high-molecular-weight glycoprotein gp240 on human melanoma cells) (human) (UniProt Q6UVK1); assay: flow cytometry on MEL-526 cells stained with ZME-018 IgG2a and APC goat anti-mouse, against an isotype control
[7] = target: gp240 antigen (high-molecular-weight glycoprotein gp240 on human melanoma cells) (human) (UniProt Q6UVK1); assay: flow cytometry on TXM-18L cells stained with ZME-018 IgG2a and APC goat anti-mouse, against an isotype control
[8] = target: gp240 antigen (high-molecular-weight glycoprotein gp240 on human melanoma cells) (human) (UniProt Q6UVK1); assay: flow cytometry on TXM-1 cells (very low gp240) stained with ZME-018 IgG2a and APC goat anti-mouse, against an isotype control
[9] = system: HER-2-overexpressing SKBR-3/H cells; assay: Western blot, DNA fragmentation, TUNEL: signal transduction effects; type: cell-based, human; parameters: key to Akt / Caspase-8 cleavage / Caspase-3 cleavage / PARP cleavage / DNA fragmentation / IκB-α / TRADD / TRAF-2: NE represents no effect; conditions: 200 nM
Description: Apoptosis was detected by DNA fragmentation and TUNEL assay. […] After 24 hr and 48 hr, cells were washed with PBS, resuspended in a DNA extraction buffer containing 5 mM Tris-HCl, pH 8, 50 mM EDTA, 10 μg/ml RNAse, and 0.25% SDS and then incubated for 1 hr at 37° C. To remove protein, resuspended cell lysates were treated with 100 μg/ml proteinase K for 3 hr at 50° C. DNA was extracted using phenol and chloroform followed by ethanol precipitation. The genomic DNA was resuspended in Tris-EDTA (pH 8) and was fractionated by electrophoresis on a 1% agarose gel containing ethidium bromide.
The cells were washed with PBS, permeabilized (0.1% Triton X-100, 0.1% sodium citrate), and then fixed in 4% paraformaldehyde. Fixed cells were stained with in situ cell death detection kit (Roche). Cells undergoing apoptosis were identified by fluorescence microscopy.
After treatment, cells were washed twice with phosphate buffered saline (PBS) and lysed on ice for 20 min in 0.3 ml of lysis buffer (10 mM Tris-HCl, pH 8, 60 mM KCl, 1 mM EDTA, 1 mM DTT, 0.2% NP-40). Cell lysates (50 μg) were fractionated by 8-15% SDS-PAGE and electrophoretically transferred to Immobilon-P nitrocellulose membranes (Schleicher & Schuell Inc., Keene, N.H.). Membranes were blocked 2 hrs in Tris-buffered saline (TBS) containing 3% bovine serum albumin and then probed with various antibodies (monoclonal anti-HER-2/neu Ab, rabbit polyclonal anti-TNFR1 Ab, rabbit polyclonal anti-TNFR2 Ab, rabbit polyclonal anti-caspase-8 Ab, monoclonal anti-caspase-3 Ab, monoclonal anti-PARP Ab, rabbit polyclonal anti-TRADD Ab, rabbit polyclonal anti-TRAF2 Ab, rabbit polyclonal anti-IκB-α Ab, rabbit polyclonal anti-phospho Akt Ab, and rabbit polyclonal anti-Akt Ab). Goat anti-mouse/goat anti-rabbit or swain anti-goat antibodies conjugated with horseradish peroxidase (Bio-Rad Laboratories, Hercules, Calif.) were used to visualize immunoreactive proteins at a 1:4000 dilution using ECL detection reagent (Amersham Pharmacia Biotech Inc., Piscataway, N.J.).

[10] = Seq. III: pretreated with GrB/scFvMEL for 6 h, then agent for 72 h
[11] = Seq. IV: agent for 72 h without GrB/scFvMEL pretreatment

Molecule | IC50 [1] | IC50 (Capan-1; Homo sapiens, CAPAN-1) | IC50 (Capan-2; Homo sapiens, Capan-2) | IC50 (AsPc-1; Homo sapiens, ASPC1) | IC50 (L3.6pl; Homo sapiens, L3.6pl) | antitumor activity on co-administration with GrB/scFvMEL (A375-M Cells) | % cytotoxicity (A375-M Cells; [10]) | % cytotoxicity (A375-M Cells; [11]) | further results
O=c1[nH]cc(F)c(=O)[nH]1 [5-Fluorouracil, 5-fluorouracil] | 1 to 300 µM | 6 µM | 300 µM | 7.5 µM | 1 µM | additive | 44.43 ± 2.118% | 21.90 ± 0.794% | Akt (L3.6pl cells): NE; Bcl-2 (L3.6pl cells): NE; inhibition of Bcl-2 expression levels (L3.6pl cells): no impact; p-Akt (L3.6pl cells): NE; Caspase-3 cleavage (L3.6pl cells; 48 hr): NE; Caspase-8 cleavage (L3.6pl cells; 48 hr): NE; PARP cleavage (L3.6pl cells; 48 hr): NE
Nc1ccn([C@@H]2O[C@H](CO)[C@@H](O)[C@@H]2O)c(=O)n1 [Ara C, cytarabine] | – | – | – | – | – | additive | 68.70 ± 0.950% | 62.10 ± 1.054% | –
N.N.[Cl][Pt][Cl] [Cisplatin] | – | – | – | – | – | synergistic | – | – | IC50 (Capan-1): 4.5 µM; IC50 (Capan-2): 50 µM; IC50 (AsPc-1): 14 µM; IC50 (L3.6pl): 3.6 µM; cytotoxic effect of agent combined with scFv23/TNF [2]: antagonistic cytotoxic effects in 3/4 cell lines
COc1cccc2c1C(=O)c1c(O)c3c(c(O)c1C2=O)C[C@@](O)(C(=O)CO)C[C@@H]3O[C@H]1C[C@H](N)[C@H](O)[C@H](C)O1 [Doxorubicin] | 0.006 to 0.7 µM | 0.06 µM | 0.5 µM | 0.32 µM | 0.03 µM | synergistic | 33.73 ± 1.590% | 30.33 ± 1.093% | IC50 (parental A375 cells): 0.0005 µM; IC50 [3]: 0.2 µM
COc1cc([C@@H]2c3cc4c(cc3[C@@H](O[C@@H]3O[C@@H]5CO[C@@H](C)O[C@H]5[C@H](O)[C@H]3O)[C@H]3COC(=O)[C@H]23)OCO4)cc(OC)c1O [Etoposide] | 1 to 300 µM | 2 µM | 40 µM | 28 µM | 2 µM | additive | 59.80 ± 1.986% | 51.27 ± 1.102% | –
Nc1ccn([C@@H]2O[C@H](CO)[C@@H](O)C2(F)F)c(=O)n1 [Gemcitabine] | 0.006 to 0.7 µM | 0.02 µM | 0.15 µM | 0.2 µM | 0.006 µM | – | – | – | cytotoxic effect of agent combined with scFv23/TNF [2]: antagonistic cytotoxic effects in 3/4 cell lines
CC[C@]1(O)C[C@H]2CN(CCc3c([nH]c4ccccc34)[C@@](C(=O)OC)(c3cc4c(cc3OC)N(C=O)[C@H]3[C@@](O)(C(=O)OC)[C@H](OC(C)=O)[C@]5(CC)C=CCN6CC[C@]43[C@@H]65)C2)C1 [VCR, vincristine] | – | – | – | – | – | synergistic | – | – | –
GrB/scFvMEL fusion construct (from UniProt P10144 21-247) | – | – | – | – | – | – | – | – | I.C.50, 72-h cytotoxicity (crystal violet), A375-M cells [4]: 32.1 nM; I.C.50, 72-h cytotoxicity (crystal violet), MEL-526 cells [4]: 50 nM; I.C.50, 72-h cytotoxicity (crystal violet), TXM-1 cells (very low-level gp240 expression) [4]: > 1 µM; I.C.50, 72-h cytotoxicity (crystal violet), TXM-13 cells [4]: 200 nM; I.C.50, 72-h cytotoxicity (crystal violet), TXM-18L cells [4]: 158 nM
monoclonal antibody ZME-018 IgG2a | – | – | – | – | – | – | – | – | Gp240 Antigen % positive [5]: 98.9%; Gp240 Antigen % positive [6]: 97.8%; Gp240 Antigen % positive [7]: 40.9%; Gp240 Antigen % positive [8]: 4.6%
B1 | – | – | – | – | – | – | – | – | Akt [9]: NE; Caspase-3 cleavage [9]: NE; Caspase-8 cleavage [9]: NE; DNA fragmentation [9]: NE; IκB-α [9]: NE*; PARP cleavage [9]: NE; TRADD [9]: NE; TRAF-2 [9]: NE; p-Akt [9]: ↑
